From US20210283204A1, “Lin28a ACTIVATOR AND USE THEREFOR” (TES Holdings CO., LTD., priority 2016, published 2021)

System: Lin28a
Experiment: Lin28a expression induction in mouse vascular endothelial cell line TKD2 cell (RT-PCR, agarose gel)
Format: cell-based
Conditions: 100 μg/mL, cultured for 5 days, FIG. 1
Protocol: Mouse vascular endothelial cell line TKD2 cell (National Institute of Biomedical Innovation, Health, and Nutrition, distributed from JCRB Cell Bank, Cell number: IF050374) was sown in advance in a 6-well plate to be 4×10^4 cells/well, and cultured overnight at 33° C. in 5% CO2 environment.
Subsequently, on the day after the date when the mouse vascular endothelial cell line TKD2 cell was sown, the exocrine secretion of Saccharomyces boulardii prepared in (1) was added to the culture medium to reach a final concentration of 100 μg/mL, and cultured for 5 days while performing addition. After the addition, the culture medium was not exchanged at all. […]
After culturing, the cell was isolated and recovered by using 0.25% of Trypsin-EDTA solution (manufactured by ThermoFisher Corporation, 25200056). […] From the total RNA, cDNA was produced by using ImProm-II (registered trademark) reverse Transcription System (Promega A3801), and expression of Lin28a was monitored by PCR using primers shown in the following Table 1. […]

ganglioside
expression of Lin28a: expression of Lin28a was not induced
